What was measured:
[1] = tested on: female flies (houseflies); test: Synergisability with sesamex, 2 μg per fly pretreatment; assay type: in vivo, Musca domestica; conditions: for Approx. Synergistic factor: sesamex, 2 μg. per fly; for LD 50 active compound + synergist: pretreated with 2 μg. per fly sesamex; for LD 50 active compound only: untreated flies
Procedure: (§1) Female flies were treated on the thorax with a one microliter drop of insecticide dissolved in acetone. Two replicates of 15 flies were used at each dose rate and 6 dose rates were used per compound under test. After treatment, the flies were maintained at a temperature of 20° C.±1° and kill was assessed 24 and 48 hours after treatment. LD50 values were calculated in micrograms of insecticide per fly and relative toxicities were calculated from the inverse ratios of the LD50 values.

[2] = tested on: houseflies (Musca domestica); test: Relative toxicity to houseflies, topical drop on thorax; assay type: in vivo; conditions: 5-benzyl-3-furylmethyl (1R)-trans-chrysanthemate = 1000; inverse ratio of LD50; topical, female flies
Procedure: (§2) The toxicity of these new esters was tested by the procedure described in detail in our above mentioned application and the following results were obtained:
(§3) The insecticidal acitivity of the esters of the invention was assessed against houseflies and mustard beetles using the following techniques:
as §1, with “values. (see Sawicki et al, Bulletin of the World Health Organization, 35,893, (1966) and Sawicki et al, Entomologia and Exp. Appl. 10, 253, (1967)).” for “values.”
(§4) Relative toxicities were calculated by comparison with 5-benzyl-3-furylmethyl(1R)-trans-chrysanthemate which is one of the most toxic chrysanthemate esters known to houseflies and mustard beetles, its toxicity being about 24 times that of allethrin to houseflies and 65 times that of allethrin to mustard beetles.

[3] = tested on: mustard beetles (Phaedon cochleariae Fab); test: Relative toxicity to mustard beetles, topical micro drop; assay type: in vivo; conditions: 5-benzyl-3-furylmethyl (1R)-trans-chrysanthemate = 1000; inverse ratio of LD50; topical, 48 hours
Procedure: as §2, §3
Acetone solutions of the test compound were applied ventrally to adult mustard beetles using a micro drop applicator. The treated insects were maintained for 48 hours after which time kill is assessed. Two replicates of 40 to 50 mustard beetles were used at each dose level and 3 to 4 dose levels were used for each compound. Again, LD50 values were calculated and relative toxicities were calculated for the inverse ratios of LD50 (see Elliott et al, J. Sci. Food Agric. 20, 561, (1969)).
as §4

[4] = tested on: female flies (houseflies); test: Synergisability with Sesamex, 5 micrograms per fly 3 hours before; assay type: in vivo, Musca domestica
Procedure: The following results were obtained
By repeating the above synergisability test but pretreating flies instead with 5 micrograms per fly of the synergist Sesamex 3 hours before applying the pyrethroid, the following results were obtained: […]

Compound	Relative Toxicity, Houseflies [2]	Relative Toxicity, Mustard Beetles [3]	also measured
CC(C)=CC1C(C(=O)OCc2coc(Cc3ccccc3)c2)C1(C)C (racemic) [5-benzyl-3-furyl methyl (1RS)--cis-trans-chrysanthemate, reference compound]			Approx. Synergistic factor [1]: ~13
CC1(C)[C@H](C=C(Cl)Cl)[C@H]1C(=O)OCc1cccc(Oc2ccccc2)c1 (racemic) [Compound P21F, 3-Phenoxybenzyl(1RS)-trans-2,2-dimethyl-3-(2,2-dichlorovinyl)cyclopropane carboxylate]	400	790	LD 50 active compound + synergist [1]: 0.00033 μg. per female fly; Approx. Synergistic factor [1]: ~39; LD 50 active compound only [1]: 0.013 μg. per female fly
CC1(C)C(C=C(Cl)Cl)C1C(=O)OC(C#N)c1cccc(Oc2ccccc2)c1 (racemic) [Compound P21P, (αRS)-cyano-3-phenoxybenzyl-(1RS)-cis-trans-3-(2,2-dichlorovinyl)-2,2-dimethyl cyclopropane carboxylate]	1300	≥ 5000	LD50 Active compound (flies pretreated with synergist) ([4]; 5 micrograms per fly Sesamex 3 hours before): 0.00088 µg; Approx. synergist factor ([4]; Sesamex, 5 micrograms per fly): ~8.3; LD 50 active compound only ([4]; without synergist): 0.0073 µg
CC1(C)[C@H](C(=O)OCc2coc(Cc3ccccc3)c2)[C@@H]1C=C(Cl)Cl (relative stereo) [Compound P21D]	1200	1700	LD 50 active compound + synergist [1]: 0.00046 μg. per female fly; Approx. Synergistic factor [1]: ~12; LD 50 active compound only [1]: 0.0058 μg. per female fly
CC1(C)[C@H](C(=O)OCc2cccc(Oc3ccccc3)c2)[C@@H]1C=C(Cl)Cl (relative stereo) [Compound P21G]	680	780	LD 50 active compound + synergist [1]: 0.00037 μg. per female fly; Approx. Synergistic factor [1]: ~22; LD 50 active compound only [1]: 0.0083 μg. per female fly
CC/C=C\[C@H]1[C@@H](C(=O)OCc2coc(Cc3ccccc3)c2)C1(C)C [Compound A cis]			LD 50 active compound + synergist [1]: 0.0012 μg. per female fly; Approx. Synergistic factor [1]: ~6; LD 50 active compound only [1]: 0.0074 μg. per female fly
CC1(C)[C@H](C(=O)OC(C#N)c2cccc(Oc3ccccc3)c2)[C@@H]1C=C(Br)Br (stereo partly drawn) [Compound P29B, (αRS)-cyano-3-phenoxybenzyl(1R)cis-2,2-dimethyl-3-(2,2-dibromovinyl)cyclopropane carboxylate]	10000	11000	
CC1(C)[C@H](C=C(Br)Br)[C@H]1C(=O)OCc1cccc(Oc2ccccc2)c1 [Compound P29C, 3-phenoxybenzyl(1R)trans-2,2-dimethyl-3-(2,2-dibromovinyl)-cyclopropane carboxylate]	1100	4000	
CC1(C)[C@H](C=C(Br)Br)[C@H]1C(=O)OC(C#N)c1cccc(Oc2ccccc2)c1 (stereo partly drawn) [Compound P29D, (αRS)-cyano-3-phenoxybenzyl(1R)trans-2,2-dimethyl-3-(2,2-dibromovinyl)-cyclopropane carboxylate]	4100	5200	
CC1(C)[C@H](C=C(Cl)Cl)[C@H]1C(=O)OC(C#N)c1cccc(Oc2ccccc2)c1 (stereo partly drawn) [Compound P29E, (αRS)-cyano-3-phenoxybenzyl(1R)trans-2,2-dimethyl-3-(2,2-dichlorovinyl)-cyclopropane carboxylate]	3900	3100	
CC1(C)[C@H](C(=O)OC(C#N)c2cccc(Oc3ccccc3)c2)[C@@H]1C=C(Cl)Cl (stereo partly drawn) [Compound P29J, (αRS)-cyano-3-phenoxybenzyl(1R)-cis-2,2-dimethyl-3-(2,2-dichlorovinyl)-cyclopropane carboxylate]	11000	4200	
CC1(C)[C@H](C=C(Cl)Cl)[C@@H]1C(=O)OC(C#N)c1cccc(Oc2ccccc2)c1 (stereo partly drawn) [Compound P29K, (αRS)-cyano-3-phenxoybenzyl(1S)-cis-2,2-dimethyl-3-(2,2-dichlorovinyl)-cyclopropane carboxylate]	140	130	
CC1(C)[C@H](C=C(F)F)[C@H]1C(=O)OCc1coc(Cc2ccccc2)c1 [Compound P31A]	3900	1900	
CC1(C)[C@H](C=C(F)F)[C@H]1C(=O)OCc1cccc(Oc2ccccc2)c1 [Compound P31B]	620	270	
CC1(C)[C@H](C=C(F)F)[C@H]1C(=O)OC(C#N)c1cccc(Oc2ccccc2)c1 (stereo partly drawn) [Compound P31C]	840	730	
CC1(C)[C@H](C(=O)OCc2coc(Cc3ccccc3)c2)[C@@H]1C=C(F)F [Compound P31D]	2300	1300	
CC1(C)[C@H](C(=O)OCc2cccc(Oc3ccccc3)c2)[C@@H]1C=C(F)F [Compound P31E]	1800	850	
CC1(C)[C@H](C(=O)OC(C#N)c2cccc(Oc3ccccc3)c2)[C@@H]1C=C(F)F (stereo partly drawn) [Compound P31F]	1200	2200	
CC1(C)[C@H](C(=O)OCc2cccc(C(=O)c3ccccc3)c2)[C@@H]1C=C(Br)Br [Compound P39A, 3-benzoylbenzyl(1R)cis-2,2-dimethyl-3-(2,2-dibromovinyl)-cyclopropane carboxylate]	50	830	
CC1(C)[C@H](C=C(F)F)[C@H]1C(=O)OCc1cccc(C(=O)c2ccccc2)c1 [Compound P39C, 3-benzoylbenzyl(1R)trans-2,2-dimethyl-3-(2,2-difluorovinyl)-cyclopropane carboxylate]	6	50	
CC1(C)[C@H](C(=O)OCc2cccc(C(=O)c3ccccc3)c2)[C@@H]1C=C(F)F [Compound P39D, 3-benzoylbenzyl(1R)-cis-2,2-dimethyl-3-(2,2-difluorovinyl)-cyclopropane carboxylate]	20	500	
CC/C=C\[C@@H]1[C@@H](C(=O)OCc2cccc(Cc3ccccc3)c2)C1(C)C [Compound S]	120	170	
CC1(C)[C@H](C=CCl)[C@H]1C(=O)OCc1coc(Cc2ccccc2)c1 [K]	1300	1600	
C#CC(OC(=O)[C@@H]1[C@H](C=C(Br)Br)C1(C)C)c1cccc(Oc2ccccc2)c1 (stereo partly drawn) [ME7]	1100	5000	
C=CCC1=C(C)C(OC(=O)[C@@H]2[C@@H](C=C(F)F)C2(C)C)CC1=O (stereo partly drawn) [ME9]	50	50	
C=CCC1=C(C)C(OC(=O)[C@@H]2[C@H](C=C(F)F)C2(C)C)CC1=O (stereo partly drawn) [ME10]	40	30	
CC1(C)C(C=C(Br)Br)C1C(=O)OC(C#N)c1cccc(Oc2ccccc2)c1 [P29B (non-crystalline isomer), (αR)-cyano-3-phenoxybenzyl(1R)cis-2,2-dimethyl-3-(2,2-dibromovinyl)cyclopropane carboxylate]	3500	4000	
C=C/C=C\CC1=C(C)[C@@H](OC(=O)[C@@H]2[C@@H](C=C(C)C)C2(C)C)CC1=O [Pyrethrin I, reference compound]	12	1600	
C=CCC1=C(C)C(OC(=O)[C@@H]2[C@@H](/C=C\CC)C2(C)C)CC1=O (stereo partly drawn) [Q]	60	69	
CC/C=C\[C@@H]1[C@@H](C(=O)OCc2cccc(Oc3ccccc3)c2)C1(C)C [T]	240	300	
